{"source": "patent US20230172959A1", "about": "“USE OF NMN FOR THE PREVENTION AND/OR TREATMENT OF A BACK PAIN AND CORRESPONDING COMPOSITIONS” (NUVAMID SA, priority 2020, published 2023)", "key": {"[1]": {"system": "chronic lumbalgia", "test": "Lequesne algo-functional index, 10-day satisfaction study in 12 volunteers", "assay_type": "in vivo, human", "procedure": "As for the Lequesne score, it varies from 0 to 22: the higher the score, the more extreme or even intolerable the impairment. From 8 to 10, the impairment is qualified as significant and for an index score greater than or equal to 10, the impairment is qualified as very significant. A satisfaction study was carried out on a group of 12 volunteers, aged 42±8 years, consisting of seven female and five male subjects. The main objective of this study was to evaluate the level of satisfaction of subjects with regard to the evolution of their lumbalgia (low back pain) during the morning and/or evening application of a composition according to the invention containing 5% by weight of NMN. A composition in the form of an oil-in-water emulsion comprising 5% NMN was formulated as follows, the ingredients being designated by their INCI (International Nomenclature of Cosmetic Ingredients) name: Aqua, Paraffinum liquidum, Cetyl alcohol, Glyceryl stearate, Benzyl PCA, Ceteareth-20, Ceteareth-12, Cetyl Palmitate, Cocoglycerides, Cetearyl alcohol, Sodium Hydroxide, NMN. The composition was prepared according to any method well known to the person skilled in the art. The study took place over 10 days. At baseline, ie upon inclusion (DO), the selected subjects provide their demographic characteristics (age, weight, height), indicate the period of persistence and intensity of the pain on a Visual Analogue Scale, and complete the WOMAC and Lequesne questionnaires. […] On day 10, the volunteers complete the WOMAC questionnaire, the Lequesne questionnaire, the Visual Analogue Scale (VAS) of pain, indicating the perceived improvement in lumbalgia pain relief as measured by the PGI-I index (abbreviation for “Patient Global Improvement Impression”), satisfaction with regard to evolution of the lumbalgia on a Likert scale as well as the ease of application and penetration of the composition, assessment of the texture and odour of the composition, likelihood of re-use thereof in the event of recurrence of a similar pain, and recommendation of use to third parties presenting with pain of similar nature. […]"}, "[2]": {"system": "chronic lumbalgia", "test": "Perceived improvement (PGI-I index) and satisfaction with evolution of lumbalgia (Likert scale)", "assay_type": "in vivo, human", "details": "end of the study", "procedure": "A satisfaction study was carried out on a group of 12 volunteers, aged 42±8 years, consisting of seven female and five male subjects. The main objective of this study was to evaluate the level of satisfaction of subjects with regard to the evolution of their lumbalgia (low back pain) during the morning and/or evening application of a composition according to the invention containing 5% by weight of NMN. A composition in the form of an oil-in-water emulsion comprising 5% NMN was formulated as follows, the ingredients being designated by their INCI (International Nomenclature of Cosmetic Ingredients) name: Aqua, Paraffinum liquidum, Cetyl alcohol, Glyceryl stearate, Benzyl PCA, Ceteareth-20, Ceteareth-12, Cetyl Palmitate, Cocoglycerides, Cetearyl alcohol, Sodium Hydroxide, NMN. The composition was prepared according to any method well known to the person skilled in the art. On day 10, the volunteers complete the WOMAC questionnaire, the Lequesne questionnaire, the Visual Analogue Scale (VAS) of pain, indicating the perceived improvement in lumbalgia pain relief as measured by the PGI-I index (abbreviation for “Patient Global Improvement Impression”), satisfaction with regard to evolution of the lumbalgia on a Likert scale as well as the ease of application and penetration of the composition, assessment of the texture and odour of the composition, likelihood of re-use thereof in the event of recurrence of a similar pain, and recommendation of use to third parties presenting with pain of similar nature. The PGI-I index is an index that serves as means for evaluating the response to a treatment. The Likert scale is a psychometric tool used for measuring an attitude in individuals, which consists of one or more statements for which the individual responding expresses their degree of agreement or disagreement."}}}
{"smiles": "NC(=O)c1ccc[n+]([C@@H]2O[C@H](COP(=O)([O-])O)[C@@H](O)[C@H]2O)c1", "note": "(stereo in doubt) [NMN, nicotinamide mononucleotide]", "values": [{"measurement": "reduction in the Lequesne score", "setting": "[1]; baseline to study endpoint", "value": 38.8, "unit": "%"}, {"measurement": "subjects with no impairment or only a modest or slight impairment (Lequesne)", "setting": "[1]; end of the study", "value": 83.4, "unit": "%"}, {"measurement": "Lequesne algo-functional score", "setting": "[1]; study endpoint (day 10), baseline 8.3±2.5, p<0.001, 5% NMN emulsion topical", "value": "5.3±3.8"}, {"measurement": "subjects with improvement characterised as 'considerable'", "setting": "[2]; 3 subjects", "value": 25.0, "unit": "%"}, {"measurement": "subjects with improvement characterised as 'a lot'", "setting": "[2]; 4 subjects", "value": 33.3, "unit": "%"}, {"measurement": "subjects with improvement characterised as 'slight'", "setting": "[2]; 4 subjects", "value": 33.3, "unit": "%"}, {"measurement": "subjects who experienced improvement", "setting": "[2]; 12 subjects", "value": 91.7, "unit": "%"}, {"measurement": "participants satisfied with the evolution of their chronic lumbalgia", "setting": "[2]; Likert scale", "value": 91.7, "unit": "%"}, {"measurement": "participants very satisfied with the evolution of their chronic lumbalgia", "setting": "[2]; Likert scale", "value": 33.3, "unit": "%"}]}
